Test results published in patent US7906486B2, “Method of treating or preventing tissue deterioration, injury or damage due to disease of mucosa” (SciClone Pharmaceuticals, Inc., priority 2007, dated 2011).
Where “and” joins values, the source holds several entries; their conditions need not be identical. Equal entries are not always repeated.

Tests used:
[1] = Weights and survival (Example 4, SCI-04); assay type: in vivo, Syrian Golden Hamsters; design: Animal weight: unit not given here; settings: for Animal weight: Group 2 (SCV-07 10 μg/kg, day −1 to day 20), individual animals
Method: All animals were weighed daily and their survival recorded, in order to assess possible differences in animal weight among treatment groups as an indication for mucositis severity and/or possible toxicity resulting from the treatments.
There were no significant differences in weight changes between study groups. The mean daily percent weight change data was evaluated. The saline treated control hamsters gained an average of 46.5% of their starting weight during the study. Hamsters in the group receiving SCV-07 at 10 μg/kg on days −1 to 20 gained an average of 51.3% of their starting weight during the study. Hamsters in the group receiving SCV-07 at 100 μg/kg on days −1 to 20 gained an average of 46.7% of their starting weight during the study. Hamsters in the group receiving SCV-07 at 1 mg/kg from day −1 to day 20 gained an average of 48.8% of their starting weight during the study. The significance of these differences was evaluated by calculating the area-under-the-curve (AUC) for the weight gain of each animal, and then comparing the different treatment groups using a One-Way ANOVA test.

bone marrow cells = settings: cited from earlier work
[2] = test system: oral mucositis induced by acute radiation (40 Gy, left buccal cheek pouch); test: Oral mucositis induced by acute radiation in hamsters, mucositis scoring (Example 1, SCI-01); assay type: in vivo, Syrian Golden Hamsters; design: key to peak mean mucositis score: 0 = normal, 5 = severe ulceration; settings: for Days <3: animal days with mucositis score below three; for % Days >=3 / Days >=3: animal days with mucositis score of three or more; for Chi Sq v control: days with score >=3
Excerpt: The acute radiation model in hamsters has proven to be an accurate, efficient and cost-effective technique to provide a preliminary evaluation of anti-mucositis compounds. The course of mucositis in this model is well defined and results in peak scores approximately 14-16 Days following radiation. The acute model has little systemic toxicity, resulting in few hamster deaths, thus permitting the use of smaller groups (N=7-8) for initial efficacy studies. It has also been used to study specific mechanistic elements in the pathogenesis of mucositis. Molecules that show efficacy in the acute radiation model may be further evaluated in the more complex models of fractionated radiation, chemotherapy, or concomitant therapy.
In this study, an acute radiation dose of 40 Gy on day 0 was administered. Clinically significant mucositis was observed on days 12 through 28.
Thirty-two (32) Syrian Golden Hamsters were given an acute radiation dose of 40 Gy directed to their left buccal cheek pouch on day 0. Test materials were given by sub-cutaneous injection once daily. Dosing began one day before radiation (day −1) and continued until day 16. Mucositis was evaluated clinically starting on day 6, and continuing on alternate days until day 28.
The grade of mucositis was scored, beginning day 6, and for every second day thereafter, through and including day 28. The effect on mucositis of each drug treatment compared to placebo was assessed according to the following parameters:
The difference in the number of days hamsters in each group have ulcerative (score ≧3) mucositis.
On each evaluation day, the number of animals with a blinded mucositis score of 3 in each drug treatment group was compared to the control group. Differences were compared on a cumulative basis and statistical significance was determined by chi-square analysis. Efficacy, in this analysis, is defined by a significant reduction in the number of days that a group of animals had ulcerations (scores 3) when compared to the control group.
For each evaluation day the scores of the control group were compared to those of the treated groups using non-parametric rank sum analysis. Treatment success was considered as a statistically significant lowering of scores in the treated group on 2 or more days from day 6 to day 28.
Thirty-two Syrian Golden Hamsters were divided into four (4) groups of eight (8) animals each. All animals received a single dose of acute radiation of 40 Gy directed to their left buccal cheek pouch on day 0. This was accomplished by anesthetizing the animals and everting the left buccal pouch, while protecting the rest of the animals with a lead shield. Test materials were given by sub-cutaneous injection once daily as detailed in Table 1. Mucositis was evaluated clinically starting on Day 6, and continuing on alternate days until day 28.
Mucositis was induced using a standardized acute radiation protocol. A single dose of radiation (40 Gy/dose) was administered to all animals on day 0. Radiation was generated with a 160 kilovolt potential (15-ma) source at a focal distance of 30 cm, hardened with a 0.35 mm Cu filtration system. Irradiation targeted the left buccal pouch mucosa at a rate of 3.2 Gy/minute. Prior to irradiation, animals were anesthetized with an intraperitoneal injection of Ketamine (160 mg/kg) and Xylazine (8 mg/kg). The left buccal pouch was everted, fixed and isolated using a lead shield to protect all other parts of the hamster's body.
The mucositis score, weight change and survival were measured throughout the study as described above. For the evaluation of mucositis, the animals were anesthetized with an inhalation anesthetic, and the left pouch everted. Mucositis was scored visually by comparison to a validated photographic scale, ranging from 0 for normal, to 5 for severe ulceration (clinical scoring). In descriptive terms, this scale is defined as follows: […]

thymocyte and lymphocyte = settings: in vitro; cited from earlier work

N[C@H](CCC(=O)N[C@@H](Cc1c[nH]c2ccccc12)C(=O)O)C(=O)O [SCV-07, γ-D-glutamyl-L-tryptophan]
average weight gain, % of starting weight during the study ([1]; 10 ug/kg on days -1 to 20): 51.3% | average weight gain, % of starting weight during the study ([1]; 100 ug/kg on days -1 to 20): 46.7% | average weight gain, % of starting weight during the study ([1]; 1 mg/kg from day -1 to day 20): 48.8% | Animal weight ([1]; day 0): 77 (2×) and 102 and 84 and 80 and 94 | Animal weight ([1]; day 1): 74 and 101 and 83 and 80 and 76 and 91 | Animal weight ([1]; day 2): 78 and 104 and 89 and 86 and 77 and 94 | Animal weight ([1]; day 3): 82 and 111 and 93 and 88 and 79 and 98 | Animal weight ([1]; day 4): 83 and 113 and 95 and 90 and 82 and 101 | Animal weight ([1]; day 5): 86 and 112 and 98 and 93 and 83 and 103 | Animal weight ([1]; day 6): 88 and 114 and 101 and 96 and 84 and 106 | Animal weight ([1]; day 7): 90 and 117 and 103 and 98 and 86 and 108 and 80 | Animal weight ([1]; day 8): 92 and 121 and 106 and 101 and 88 and 109 and 83 | Animal weight ([1]; day 9): 94 and 122 and 106 and 102 and 91 and 108 and 83 | Animal weight ([1]; day 10): 96 and 125 and 112 and 105 and 90 and 109 and 85 | Animal weight ([1]; day 11): 98 and 125 and 111 and 105 and 92 and 109 | Animal weight ([1]; day 12): 98 and 128 and 111 and 107 and 91 and 109 | Animal weight ([1]; day 13): 98 and 128 and 112 and 108 (2×) and 90 | Animal weight ([1]; day 14): 99 and 130 and 115 and 109 and 91 and 111 | Animal weight ([1]; day −1): 77 and 101 and 85 and 82 and 76 and 94 | expression of Thy-1.2 on bone marrow cells (bone marrow cells): stimulates | day of peak mean mucositis score ([2]; 1 ug/kg from day -1 to 16): 16 | peak mean mucositis score ([2]; 1 ug/kg from day -1 to 16): 3.8 | improvement in daily mucositis scores relative to saline controls (Mann-Whitney rank sum) ([2]; 1 ug/kg on days -1 to 16, any day of the study): did not show any statistically significant improvement on any day | day of peak mean mucositis score ([2]; 10 ug/kg from day -1 to 16): 16 | peak mean mucositis score ([2]; 10 ug/kg from day -1 to 16): 3.7 | day of peak mean mucositis score ([2]; 100 ug/kg from day -1 to 16): 18 | peak mean mucositis score ([2]; 100 ug/kg from day -1 to 16): 3.4 | Days <3 ([2]; 1 ug/kg sc Days -1 to 16): 102 | Days <3 ([2]; 10 ug/kg sc Days -1 to 16): 120 | Days <3 ([2]; 100 ug/kg sc Days -1 to 16): 124 | % Days >=3 ([2]; 1 ug/kg sc Days -1 to 16): 46.9% | Days >=3 ([2]; 1 ug/kg sc Days -1 to 16): 90 | % Days >=3 ([2]; 10 ug/kg sc Days -1 to 16): 37.5% | Days >=3 ([2]; 10 ug/kg sc Days -1 to 16): 72 | % Days >=3 ([2]; 100 ug/kg sc Days -1 to 16): 35.4% | Days >=3 ([2]; 100 ug/kg sc Days -1 to 16): 68 | Chi Sq v control ([2]; 1 ug/kg sc Days -1 to 16): 0.0105 | Chi Sq v control ([2]; 10 ug/kg sc Days -1 to 16): 3.0860 | Chi Sq v control ([2]; 100 ug/kg sc Days -1 to 16): 4.7420 | Con-A-induced thymocyte and lymphocyte proliferation (thymocyte and lymphocyte): increases
